Measured values reported in patent publication US20240252586A1, “ENGINEERED ANTIMICROBIAL PEPTIDES AND USAGE THEREOF” (priority 2021, published 2024).
“And” between values parts separate entries of the source, which are not always exact repeats. Identical values can stand only once. Like-named read-outs stand apart in the source and are kept apart here. Blank lines part the entries; values can stand above or below the compound they belong to.

What was measured:
S. epidermidis MMX 5129 = system: S. epidermidis MMX 5129
Method: (§1) SEQ ID NO: 1 stocks were made at 5.12 mg/mL in water adjusted to pH of 5.0 with 1% glacial acetic acid.
(§2) The test organisms (Table 7) consisted of clinical isolates from the Micromyx (MMX) repository, a reference isolate from the American Type Culture Collection (ATCC, Manassas, VA) and the Centers for Disease Control (CDC, Atlanta GA). Upon initial receipt, the isolates were streaked under suitable conditions onto agar medium appropriate to each organism. The organisms were incubated for 18-24 hr at 35° C. in ambient atmosphere. Colonies harvested from these growth plates were resuspended in the appropriate medium containing a cryoprotectant. Aliquots of each suspension were then stored frozen at −80° C. Prior to testing, all organisms were cultured onto trypticase soy agar containing 5% sheep blood. The agar plates were incubated as described above.
(§3) The Test media used for MIC and FIC were testing were cation-adjusted Mueller-Hinton broth (CAMHB) and Roswell Park Memorial Institute (RPMI-1640), buffered with 3-(N-morpholino)propanesulfonic acid (MOPS). Each test media was supplemented with 0.002% Tween-80 (P-80) prior to testing.
(§4) MIC assay plates were prepared for broth microdilution in accordance with guidelines from the Clinical and Laboratory Standards Institute (CLSI); automated liquid handlers (Biomek 3000 and Biomek FX) and multi-channel pipettes were used to conduct serial dilutions and liquid transfers. MIC assay plates were prepared using a 96-well, deep-well microdilution plate that mimicked the layout of the daughter plates.
(§5) For the mother plate, wells across the standard 96-well microdilution plate were filled with 150 μL of sterile saline 0.002% P-80 in columns 2 through 12. […] The Biomek 300 was used to make eleven 2-fold serial dilutions horizontally across each row of the plate from columns 2 through 11. The Biomek FX was then used to transfer 5 μL of the SEQ ID NO: 1 and saline 0.002% P-80 to the daughter plates.
(§6) A standardized inoculum of each organism was prepared per CLSI methods. Suspensions were prepared to equal a 0.5 McFarland standard followed by a 1:10 dilution into test medium. The inocula were dispensed into sterile reservoirs divided by length and the Biomek 3000 was used to inoculate the plates. Daughter plates were placed on the Biomek 3000 work surface in reverse orientation so that inoculation took place from low to high drug concentration. The Biomek 3000 delivered 10 μL of the diluted suspension into each well. These inoculations yielded a final cell concentration in the daughter plates of approximately 5×10^5 CFU/mL in each well. Plates were incubated at 35° C. for 16-20 hr. The microplates were viewed from the bottom using a plate viewer and the MIC was recorded as the lowest concentration of drug that inhibited visible growth of the organism.

S. epidermidis MMX 8655 = system: S. epidermidis MMX 8655
Method: as §1, §2, §3, §4, §5, §6

E. Coli ATCC BAA-2469 = system: E. Coli ATCC BAA-2469
Method: as §1, §2, §3, §4, §5, §6

P. aeruginosa CDC 0509 = system: P. aeruginosa CDC 0509
Method: as §1, §2, §3, §4, §5, §6

S. aureus NRS 382 = system: S. aureus NRS 382
Method: as §1, §2, §3, §4, §5, §6

S. aureus NRS 384 = system: S. aureus NRS 384
Method: as §1, §2, §3, §4, §5, §6

E. Coli CDC 0451 = system: E. Coli CDC 0451
Method: as §1, §2, §3, §4, §5, §6

S. epidermidis MMX 3628 = system: S. epidermidis MMX 3628
Method: as §1, §2, §3, §4, §5, §6

S. aureus ATCC 29213 = system: S. aureus ATCC 29213
Method: as §1, §2, §3, §4, §5, §6

P. aeruginosa CDC 0515 [1] = system: P. aeruginosa CDC 0515
Method: as §1, §2, §3, §4, §5, §6

P. aeruginosa ATCC 27853 = system: P. aeruginosa ATCC 27853
Method: as §1, §2, §3, §4, §5, §6

E. Coli ATCC 25922 = system: E. Coli ATCC 25922
Method: as §1, §2, §3, §4, §5, §6

P. aeruginosa CDC 0515 [2] = conditions: for FICA / MICA: RPMI; for MICA: in combination with SEQ ID NO: 1
Method: FIC test ranges were set based on broth microdilution MIC test data. FIC assay plates were prepared in accordance with CLSI guidelines for broth microdilution susceptibility testing; automated liquid handlers, and multi-channel pipettes were used to conduct serial dilutions and liquid transfers.
SEQ ID NO: 1 was tested at two concentration ranges depending on the test media. All organisms tested in CAMHB 0.002% P-80 were tested from 0.015-16 μg/mL; when tested in RPMI 0.002% P-80, the range tested was 0.004-4 μg/mL. For each SEQ ID NO: 1 mother, wells across the standard 96-well microdilution plate were filled with 150 μL of sterile saline 0.002% P-80 in columns 2 through 12. A 300 μL aliquot at 20× the highest final concentration of each dilution range to be tested, was added to each well in column 1 of the plate. The Biomek 3000 was used to make eleven 2-fold serial dilutions horizontally across each row of the plate columns 2 through 11.
The daughter plates were then completed using the Biomek FX to transfer 5 μL of drug solution from each well of the SEQ ID NO: 1 mother plates to the corresponding well in each daughter plate in a single step. […] The preparation of the daughter plates was performed for each media type; two times in total as all organisms were tested in both media types.
A standard inoculum for each organism was prepared per CLSI method. Colonies were picked up from the primary plate and a suspension was prepared equal to 0.5 McFarland turbidity standard. The suspensions were additionally diluted 1:10 in the appropriate broth. A 10 μL standardized inoculum was delivered into each well using the Biomek 3000 from low to high concentration. These inoculations yielded a final cell concentration in the daughter plates of approximately 5×10^5 CFU/mL in each well. […] Exemplary checkboard panels are seen in Table 5 and Table 6. Plates were incubated at 35° C. for 16-20 hr.
The MIC of the horizontal agent (row H) and the MIC of the vertical agent (column 12) were recorded and the wells of the growth-no growth interface for wells containing agents in combination at varying ratios were recorded by row. […] Pinpoint trailing was not interpreted as growth.
For each relevant row of the panel, the FICI was calculated as:
FICdrug A/MICdrug A+FICdrug B/MICdrug=FICI
Mean FICI values were determined for each combination tested by averaging the FICI values as observed on each row of the checkerboard assay (See Table 9, e.g., if there were FICI values for B-G, those FICI values were added together and divided by the number of rows the FICI values which in this case is 6 to get the mean FICI value for that combination).
Using the criteria described by: Odds FC. 2003. Synergy, antagonism, and what the chequerboard puts between them. J Antimicrob Chemother 52(1):1, the mean FICI for the combination was interpreted as follows: ≤0.5=synergy, >0.5-4=additive/indifferent, and >4=antagonism. […] An interpretation of indifference is consistent with growth inhibition at concentrations at or slightly below/above the MICs of the individual agents alone, resulting in a FICI value of >0.5 but […].

[3] = system: Staphylococcus aureus NRS 382 (USA100 MRSA) biofilm; assay: Wire biofilm time-kill assay (Study 3); type: cell-based; conditions: 150 mM sodium bicarbonate, 1 mg/mL; for CFU/mL: per replicate
Source text: Study 3. […]
These three vehicles without SEQ ID NO: 1 served as the untreated controls. Double strength Dey/Engley neutralizing broth was used as a neutralizer for dilution and plating during determination of colony-forming units (CFU)/mL at each time point.
In order to establish the biofilm on the wires, the following procedure was followed: An overnight culture of each isolate was made in Tryptic soy broth. K-wires that were cut to 6 mm and sterilized by autoclaving were placed in 24 well plates and inoculated with 1 mL of a normalized bacterial suspension containing approximately 1×10^6 CFU/mL in cation-adjusted Mueller-Hinton broth. The plates containing the wires were incubated for 24 hr at 35° C. followed by removing the planktonic cells by carefully pipetting the medium from the wells. Fresh CAMHB (1 mL) was added to the wells containing the wires and the plates were incubated for an additional 24 hr at 35° C.
After the biofilm was established, the wires were removed from the wells using sterile forceps, rinsed with 1 mL of PBS, and placed in the appropriate treatment well containing 0, 1, 5, or 10 mg/mL SEQ ID NO: […] After the designated time, each wire was removed, rinsed with 1 mL of PBS, and then placed in an Eppendorf tube with 1 mL of double strength Dey-Engley medium. The wires were then sonicated at room temperature for 10 min to dislodge bacteria using a Lab Line Instruments sonicator at a setting of 100%.
A 0.2 mL aliquot of sonicate was removed and pipetted into column 1 of a 96-well plate that contained 180 μL of double strength Dey-Engley medium in columns 2 through 5. […] The plate was then tilted at a […] to allow the diluted sample to track across the agar surface to the opposite side of the plate. The plates were laid flat, allowed to dry at room temperature, then inverted and incubated at 35° C. for approximately 24 hr. Colonies were manually counted to determine the viable count in CFU/mL.

MIC (S. epidermidis MMX 5129; CAMHB): 200 mM | MIC (S. epidermidis MMX 5129; RPMI): 200 mM | MIC (S. epidermidis MMX 8655; CAMHB): 200 mM | MIC (S. epidermidis MMX 8655; RPMI): 200 mM | MIC (E. Coli ATCC BAA-2469; CAMHB): 200 mM | MIC (E. Coli ATCC BAA-2469; RPMI): 200 mM | MIC (P. aeruginosa CDC 0509; CAMHB): 200 mM | MIC (P. aeruginosa CDC 0509; RPMI): 200 mM | MIC (S. aureus NRS 382; CAMHB): 200 mM | MIC (S. aureus NRS 382; RPMI): 200 mM | MIC (S. aureus NRS 384; CAMHB): 200 mM | MIC (S. aureus NRS 384; RPMI): 200 mM | MIC (E. Coli CDC 0451; CAMHB): 100 mM | MIC (E. Coli CDC 0451; RPMI): 200 mM | MIC (S. epidermidis MMX 3628; CAMHB): 100 mM | MIC (S. epidermidis MMX 3628; RPMI): 200 mM | MIC (S. aureus ATCC 29213; CAMHB): >200 mM | MIC (S. aureus ATCC 29213; RPMI): 200 mM | MIC (P. aeruginosa CDC 0515 [1]; CAMHB): 200 mM | MIC (P. aeruginosa CDC 0515 [1]; RPMI): 200 mM | MIC (P. aeruginosa ATCC 27853; CAMHB): 200 mM | MIC (P. aeruginosa ATCC 27853; RPMI): 200 mM | MIC (E. Coli ATCC 25922; CAMHB): 200 mM | MIC (E. Coli ATCC 25922; RPMI): 200 mM | Drug A MIC (P. aeruginosa CDC 0515 [2]; CAMHB, alone): > 100 | MICA (P. aeruginosa CDC 0515 [2]; checkerboard row A): 100 | MICA (P. aeruginosa CDC 0515 [2]; checkerboard row B): 50 | MICA (P. aeruginosa CDC 0515 [2]; checkerboard row C): 25 | MICA (P. aeruginosa CDC 0515 [2]; checkerboard row D): 12.5 | MICA (P. aeruginosa CDC 0515 [2]; checkerboard row E): 6.25 | MICA (P. aeruginosa CDC 0515 [2]; checkerboard row F): 3.12 | MICA (P. aeruginosa CDC 0515 [2]; checkerboard row G): 1.56
Compound: O=C([O-])O.[Na+] [Sodium Bicarbonate]
FICA (P. aeruginosa CDC 0515 [2]; checkerboard row A): 0.5 | FICA (P. aeruginosa CDC 0515 [2]; checkerboard row B): 0.25 | FICA (P. aeruginosa CDC 0515 [2]; checkerboard row C): 0.125 | FICA (P. aeruginosa CDC 0515 [2]; checkerboard row D): 0.063 | FICA (P. aeruginosa CDC 0515 [2]; checkerboard row E): 0.031 | FICA (P. aeruginosa CDC 0515 [2]; checkerboard row F): 0.016 | FICA (P. aeruginosa CDC 0515 [2]; checkerboard row G): 0.008

Compound: SEQ ID: 1 (RRWVRRVRRVWRRVVRVVRRWVRR)
Mean CFU/mL ([3]; 0 min): 1.08E+5 CFU/mL | CFU/mL ([3]; 0 min): 4.80E+04 CFU/mL and 1.50E+05 CFU/mL and 1.25E+05 CFU/mL | Mean CFU/mL ([3]; 1 min): 1.68E+3 CFU/mL | CFU/mL ([3]; 1 min): 8.00E+02 CFU/mL and 3.15E+03 CFU/mL and 1.10E+03 CFU/mL | CFU/mL 2 ([3]; 5 min): 0 CFU/mL | Mean CFU/mL ([3]; 5 min): 5.00E+1 CFU/mL | CFU/mL ([3]; 5 min): 5.00E+01 CFU/mL | CFU/mL 2 ([3]; […]): 1.00E+02 CFU/mL | Mean CFU/mL ([3]; […]): 1.17E+2 CFU/mL
